Consider eleven compounds from patent US5770617A, “Terbenzimidazoles useful as antifungal agents” (Rutgers, The State University of New Jersey, priority 1997, dated 1998).

Assay [1] addresses T1, human topoisomerase I (Homo sapiens, UniProt P11387).
T1 construct: made in house; host or cells: Escherichia coli BL21 (DE3) harboring PET1B
T1 sequence (P11387 1-765): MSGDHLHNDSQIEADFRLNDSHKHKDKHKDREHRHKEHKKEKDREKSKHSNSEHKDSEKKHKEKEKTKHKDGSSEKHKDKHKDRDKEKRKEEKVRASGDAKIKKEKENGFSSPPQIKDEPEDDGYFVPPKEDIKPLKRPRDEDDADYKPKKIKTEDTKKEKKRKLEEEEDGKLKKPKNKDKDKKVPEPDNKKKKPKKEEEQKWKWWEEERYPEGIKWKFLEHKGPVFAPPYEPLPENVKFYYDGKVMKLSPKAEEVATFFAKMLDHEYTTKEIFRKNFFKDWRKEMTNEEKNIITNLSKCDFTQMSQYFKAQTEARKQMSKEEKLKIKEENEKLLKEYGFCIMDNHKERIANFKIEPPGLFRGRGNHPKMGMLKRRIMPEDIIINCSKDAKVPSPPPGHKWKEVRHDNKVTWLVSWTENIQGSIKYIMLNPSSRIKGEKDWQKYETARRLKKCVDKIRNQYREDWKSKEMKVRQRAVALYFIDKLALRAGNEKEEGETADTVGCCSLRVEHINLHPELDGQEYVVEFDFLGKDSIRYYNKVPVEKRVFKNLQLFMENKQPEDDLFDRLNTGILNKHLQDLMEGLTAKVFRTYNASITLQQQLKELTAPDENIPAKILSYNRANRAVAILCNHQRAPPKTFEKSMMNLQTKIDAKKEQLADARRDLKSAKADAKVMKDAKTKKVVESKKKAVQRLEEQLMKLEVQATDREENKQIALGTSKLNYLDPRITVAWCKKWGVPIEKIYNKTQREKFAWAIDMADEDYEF
The following applies: cited from earlier work.

Assay [2] has as its target T2, Aspergillus topoisomerase I (Aspergillus nidulans, UniProt Q5BGS7).
T2 construct: about 105 kDa by phosphate transfer
T2 sequence (Q5BGS7 1-871): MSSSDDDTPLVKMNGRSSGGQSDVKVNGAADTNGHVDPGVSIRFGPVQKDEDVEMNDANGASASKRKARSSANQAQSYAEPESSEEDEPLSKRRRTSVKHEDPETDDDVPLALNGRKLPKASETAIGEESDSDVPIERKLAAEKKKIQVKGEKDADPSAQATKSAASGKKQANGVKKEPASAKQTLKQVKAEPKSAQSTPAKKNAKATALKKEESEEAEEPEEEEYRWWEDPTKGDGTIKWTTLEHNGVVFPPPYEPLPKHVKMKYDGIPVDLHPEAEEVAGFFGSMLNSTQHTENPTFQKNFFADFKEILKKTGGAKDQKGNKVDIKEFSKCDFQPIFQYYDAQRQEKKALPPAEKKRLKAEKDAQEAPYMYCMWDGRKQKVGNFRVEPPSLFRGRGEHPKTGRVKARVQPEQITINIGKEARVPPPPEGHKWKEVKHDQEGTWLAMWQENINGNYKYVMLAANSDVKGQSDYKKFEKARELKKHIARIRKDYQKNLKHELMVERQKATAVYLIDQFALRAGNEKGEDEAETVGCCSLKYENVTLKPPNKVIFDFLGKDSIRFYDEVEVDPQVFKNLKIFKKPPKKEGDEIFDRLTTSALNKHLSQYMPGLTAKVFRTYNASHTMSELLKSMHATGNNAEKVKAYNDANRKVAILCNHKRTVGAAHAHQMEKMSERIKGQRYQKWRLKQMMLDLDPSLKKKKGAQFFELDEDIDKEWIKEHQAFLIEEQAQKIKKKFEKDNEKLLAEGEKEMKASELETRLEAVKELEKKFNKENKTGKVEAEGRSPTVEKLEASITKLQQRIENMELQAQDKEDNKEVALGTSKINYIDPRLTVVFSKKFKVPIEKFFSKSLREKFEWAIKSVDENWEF
The assay is described as follows: Topoisomerase I cleavage assay, Aspergillus enzyme. The following applies: DNA cleavage assay. Format: biochemical. As to the method: Two liters of YG medium (0.5% yeast extract and 2% glucose) were inoculated with approximately 5×10^8 conidia/ml. After 16 hours of growth at 37° C., the mycelia were collected, washed with Buffer I (50 mM Tris-HCl, pH 7.7, 1 mM EDTA, 1 mM EGTA, 10% glycerol, 1 mM phenylmethylsulfonyl fluoride and 1 mM 2-mercaptoethanol), and quickly chilled in liquid nitrogen. The frozen mycelia (approximately 20 grams) were ground to powder and resuspended in 300 ml of Buffer I. The lysate was centrifuged at 10K rpm in a Sorval HB3 Rotor for 15 minutes to remove cell debris. The supernatant was made 6% in polyethylene glycol (v/v) and 1M NaCl. After one hour on ice with gentle stirring, the solution was centrifuged at 14K rpm in a Sorvall Rotor for 30 minutes to remove nucleic acids.
Subsequent steps in purification were the same as described previously for purification of recombinant human DNA topoisomerase I (B. Gatto et al., Cancer Res., 56, 2795 (1996)). Briefly, the supernatant was chromatographed directly onto a hydroxyapatite Bio-gel HTP (BioRad Laboratories, Richmond, Calif.) column. Fractions containing relaxation activity were pooled, diluted and then loaded onto a BioRex70 column (BioRad Laboratories, Richmond, Calif.). The column was developed with a linear gradient from 0.2 to 1M KCl. The peak fractions were pooled and dialyzed overnight at 4° C. against 30 mM potassium phosphate, 50% glycerol (v/v), 0.5 mM EDTA, and 1 mM DTT. Recombinant human topoisomerase I was purified from Escherichia coli BL21 (DE3) harboring PET1B as described previously (Gatto et al., Cancer Res., 56, 2795 (1996)).
DNA topoisomerase I cleavage assays were performed as described by Y.-H. Hsiang et al., J. Biol. Chem., 260, 14873 (1985). YEpG DNA was linearized with BamHI and then 3 '-end-labeled with Klenow polymerase and α[-^32 P]dCTP. Following phenol extraction and ethanol precipitation, the labeled DNA was resuspended in 10 mM Tris, pH 8.0, and 1 mM EDTA. The DNA cleavage assay was done in a reaction mixture (20 μl) containing 40 mM Tris-HCl, pH 7.8, 100 mM KCl, 10 mM MgCl2, 0.5 mM dithiothreitol, 0.5 mM EDTA, 30 μg/ml bovine serum albumin, 20 ng of labeled YEpG DNA, and […] of Aspergillus or human topoisomerase I diluted to various extents. Following incubation at 23° C. for 15 minutes, the reactions were terminated by the addition of SDS (final concentration 1%) and proteinase K (final concentration 200 μg/ml). Proteinase K treatment continued at 37° C. for another 1 hour. The terminated reactions were either alkali-denatured and then loaded (alkaline loading) or loaded directedly in neutral loading buffer (neutral loading) onto a 1% agarose gel in neutral TPE electrophoresis solution. Gel drying and autoradiography were performed as described by Hsiang et al., cited above.

The target in assay [3] is T3, calf thymus topoisomerase I (Bos taurus, UniProt F1MN93).
T3 construct: DNA topoisomerase I was purified from calf thymus gland as reported previously; from tissue; host or cells: calf thymus gland
T3 sequence (F1MN93 1-767): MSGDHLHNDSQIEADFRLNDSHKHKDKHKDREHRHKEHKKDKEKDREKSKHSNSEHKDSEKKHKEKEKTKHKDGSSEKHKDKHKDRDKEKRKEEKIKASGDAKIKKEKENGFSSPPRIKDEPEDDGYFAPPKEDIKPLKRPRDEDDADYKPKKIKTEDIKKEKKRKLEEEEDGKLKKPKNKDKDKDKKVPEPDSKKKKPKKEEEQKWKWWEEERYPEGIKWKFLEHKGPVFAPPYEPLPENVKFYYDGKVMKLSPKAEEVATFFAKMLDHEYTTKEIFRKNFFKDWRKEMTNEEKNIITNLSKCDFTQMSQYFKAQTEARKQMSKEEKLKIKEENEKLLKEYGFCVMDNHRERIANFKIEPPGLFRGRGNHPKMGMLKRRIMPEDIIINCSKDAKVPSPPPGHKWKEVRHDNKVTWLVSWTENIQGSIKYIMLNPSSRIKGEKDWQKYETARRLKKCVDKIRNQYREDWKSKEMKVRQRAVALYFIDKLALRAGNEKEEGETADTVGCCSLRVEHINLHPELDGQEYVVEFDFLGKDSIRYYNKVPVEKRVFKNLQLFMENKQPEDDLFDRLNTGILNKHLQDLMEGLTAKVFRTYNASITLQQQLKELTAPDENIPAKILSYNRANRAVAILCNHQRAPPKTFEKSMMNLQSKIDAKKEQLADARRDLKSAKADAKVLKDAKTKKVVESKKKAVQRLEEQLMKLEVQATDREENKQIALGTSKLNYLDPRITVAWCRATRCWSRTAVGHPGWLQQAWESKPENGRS
The assay is described as follows: Topoisomerase I-mediated DNA cleavage assay (calf thymus enzyme). The following applies: concentration relative to Hoechst 33342 (arbitrarily 1) producing the same cleavage on plasmid DNA; calf thymus topoisomerase I. Format: biochemical. The source says: A. Topoisomerase I-Mediated DNA Cleavage Assays
DNA topoisomerase I was purified from calf thymus gland as reported previously by B. D. Halligan et al., J. Biol. Chem., 260, 2475 (1985).
Plasmid YEpG was also purified by the alkali lysis method followed by phenol deproteination and CsCl/ethidium isopycnic centrifugation as described by T. Maniatis et al., Molecular Cloning, A Laboratory Manual, Cold Spring Harbor Labs, N.Y. (1982) at pages 149-185. The end-labeling of the plasmid was accomplished as previously described by L. F. Liu et al., J. Biol. Chem., 258, 15365 (1983). The cleavage assays were performed as previously reported by A. Y. Chen et al., Cancer Res., 53, 1332 (1993). Human topoisomerase I was isolated as a recombinant fusion protein using a T7 expression system.

“Also recorded” adds a separate entry of the source.

Consider `N=C(N)c1ccc(N=NNc2ccc(C(=N)N)cc2)cc1` [Berenil, berenil], for which, in assay [1], the “inhibition of human topoisomerase I, in words (known / previously disclosed)” value was “inactive”. The “inhibition (poisoning) of Aspergillus topoisomerase I, in words” value (shortened to “inhibition (poisoning)”) in assay [2] was “inactive”.

For `c1ccc2[nH]c(-c3ccc4[nH]c(-c5ccc6[nH]cnc6c5)nc4c3)nc2c1` [Compound 10, 2-[2'-(Benzimidazol-5"-yl)benzimidazol-5'-yl]benzimidazole], the “Topo I-mediated DNA cleavage (REC, Relative Effective Concentration)” value in assay [3] was 1.1.

In the case of `c1ccc(-c2ccc3[nH]c(-c4ccc5[nH]c(-c6ccc7[nH]cnc7c6)nc5c4)nc3c2)nc1` [Compound 14, 5-(2-Pyridyl)-2-[2'-(benzimidazol-5"-yl)benzimidazol-5'-yl]benzimidazole], the “Topo I-mediated DNA cleavage (REC, Relative Effective Concentration)” value in assay [3] stood at 3.3.

As for `c1cncc(-c2ccc3[nH]c(-c4ccc5[nH]c(-c6ccc7[nH]cnc7c6)nc5c4)nc3c2)c1` [Compound 15, 5-(3-Pyridyl)-2-[2'-(benzimidazol-5"-yl)benzimidazol-5'-yl]benzimidazole], in assay [3], the “Topo I-mediated DNA cleavage (REC, Relative Effective Concentration)” value came out at 2.

Turning to `c1cc(-c2ccc3[nH]c(-c4ccc5[nH]c(-c6ccc7[nH]cnc7c6)nc5c4)nc3c2)ccn1` [Compound 16, 5-(4-Pyridyl)-2-[2'-(benzimidazol-5"-yl)benzimidazol-5'-yl]benzimidazole], the “Topo I-mediated DNA cleavage (REC, Relative Effective Concentration)” value in assay [3] was found to be 2.

In the case of `N#Cc1ccc2[nH]c(-c3ccc4[nH]cnc4c3)nc2c1` [Compound 19, 5-Cyano-2-(benzimidazol-5'-yl)benzimidazole], the “Topo I-mediated DNA cleavage (REC, Relative Effective Concentration)” value in assay [3] was found to be 1000.

Turning to `Clc1ccc(-c2ccc3[nH]c(-c4ccc5[nH]c(-c6ccc7[nH]cnc7c6)nc5c4)nc3c2)cc1` [JSKIV-47, 5-(p-Chlorophenyl)-2-[2'-(benzimidazol-5"-yl)benzimidazol-5'-yl]-benzimidazole], the “Topo I-mediated DNA cleavage (REC, Relative Effective Concentration)” value in assay [3] was found to be 10.

On to `Clc1ccc2[nH]c(-c3ccc4[nH]c(-c5ccc6[nH]cnc6c5)nc4c3)nc2c1` [JSKIV-68, 5-Chloro-2-[2'-(benzimidazol-5"-yl)benzimidazol-5'-yl]-benzimidazole], for which, in assay [3], the “Topo I-mediated DNA cleavage (REC, Relative Effective Concentration)” value came out at 1.

For the compound `COc1ccc(-c2nc3ccc(C(F)(F)F)cc3[nH]2)cc1` [QS/II/50], the “inhibition (poisoning)” value in assay [2] is “None of the mono-benzimidazoles, including QS/II/50, QS/II/51, QS/II/59A, an QS/II/9, exhibited any inhibitory effect”.

`CCOc1ccc(-c2nc3ccc(-c4nc5cc(CCCN(C)C)ccc5[nH]4)cc3[nH]2)cc1` [compound 2 wherein n is 3]: the “inhibition (poisoning)” value in assay [2] is listed as “selective sensitivity”.

In the case of `COc1cc2cc3c4cc(OC)c(OC)cc4cc[n+]3c(C)c2cc1OC` [coralyne], the “inhibition of human topoisomerase I, in words (known / previously disclosed)” value in assay [1] is recorded as “highly potent inhibitors”. Also, the “inhibition (poisoning)” value in assay [2] is “completely resistant; also recorded: did not inhibit Aspergillus topoisomerase I to any significant extent”.
